Our source for the melting point values is a melting point compilation (Tetko et al.; mined from patent text by program, amines drawn as free bases though some values may be those of a salt).

In general, melting point refers to the temperature, or range, at which the solid turns liquid. `CCCc1c(OCC(O)COc2ccc3c(c2CCC)OC(C(=O)O)CC3=O)ccc(C(C)=O)c1O` (stereo not given): the melting point is 68 to 72 °C.

In turn, `Cc1ccccc1C=C1CCn2c1nc1ccc(CO)cc1c2=O` gave a melting point of 222 to 224 °C.

With `Oc1ccc2nc(-c3ccc(O)c(Cl)c3)oc2c1`, the melting point lay in the range of 254 to 256 °C.

The compound `CC(C(=O)O)c1ccc2c(c1)C(=O)Cc1cc(O)ccc1S2` (stereo not given) came in with a melting point of 216 to 217 °C.

`COc1cccc(-c2c(F)c(F)c(N)c(F)c2F)c1` registered a melting point of 94 to 96 °C.

`COc1ccccc1N1CCN(C2(C(=O)c3ccc(Cl)cc3)CC2)CC1` showed a melting point of 103 to 104 °C.

As for `CCCCCCCCCCCCCCCc1c([N+](=O)[O-])cc([N+](=O)[O-])c(O)c1C(=O)O`, the melting point lay within 78 to 82 °C.

As to `N=C(NCc1ccc(Cl)cc1)Nc1cccc(C(F)(F)F)c1`, the melting point fell in the range of 103 to 105 °C.

In turn, `CS(=O)(=O)c1ccc(-c2cc(CO)nn2-c2ccc(Cl)cc2)cc1` registered a melting point of 96 to 100 °C.

`CSC(=C[N+](=O)[O-])NCCSCc1ccco1` registered a melting point of 68 to 70 °C.

The compound `NC(=O)c1c(Cl)c(-c2ccccc2)n2c1CN(S(=O)(=O)c1ccc(Cl)cc1)CC2` had a melting point of 123 to 125 °C.

In the case of `Cc1cc2cc(F)ccc2n1-c1ccc(OCc2ccccc2)cc1`, the melting point lay within 94 to 95 °C.

For `O=C(CNc1ccccc1)Nc1cc(Cl)ccc1C(=O)O`, the melting point lay in the range of 229 to 230 °C.

Regarding `COC(=O)c1ccc(Cc2cn(C(C)C)c3ccc(C=CCC(=O)N(C)C)cc23)c(OC)c1`, the melting point lay in the range of 118 to 120 °C.

`CC(=O)N1CCC(C(=O)c2nccn2CCc2ccccc2)CC1` displayed a melting point of 113 to 116 °C.

Turning to `CN(C)CCCN1c2ccccc2C(c2ccccc2Cl)=Nc2cccnc21`, the melting point lay within 104 to 106 °C.

The compound `COc1ccc(-c2cc3cc(F)c(F)cc3[nH]2)cc1NS(=O)(=O)c1cccc(C#N)c1` showed a melting point of 239 to 242 °C.

`Nc1cc(N2CC(c3cccs3)OC2=O)ccn1` (stereo not given) returned a melting point of 151 to 153 °C.

`Cc1nc2c(s1)C=Cc1cc(Cl)ccc1C2c1cn(C)c(=O)[nH]c1=S` (stereo not given) returned a melting point of 305 °C.

Compound `CN(C)c1ccc(C(=O)CC(=O)C(C)(C)C)cc1` had a melting point of 61.5 to 61.8 °C.

The compound `CC(C)(C)c1cc(C(=O)c2ccc[nH]2)cc(C(C)(C)C)c1O` showed a melting point of 146 °C.

For `CC(C)C(=O)OC1(C(=O)CO)CCC2C3CC(C)C4=CC(=O)CCC4(C)C3C(O)CC21C` (stereo not given), the melting point was 191 °C.

With `O=C(O)CCC(=O)Cc1ccc2c(c1)Cc1cccnc1O2`, the melting point was in the range of 146 to 147 °C.

In the case of `Cc1ccc(C(O)Cc2nc(C)c(C)nc2C)cc1` (stereo not given), the melting point is 99 to 101 °C.

For the compound `CCCCn1nc(SCCCCCC(=O)O)c(C(=O)O)c1Cc1cc2c(cc1Cl)OCO2`, the melting point was 70 °C.

Consider `COc1ccc(C(C#N)C(=O)C(=O)C(C#N)c2ccccc2)cc1` (stereo not given), for which the melting point lay within 256 to 258 °C.

For `O=C(O)CC1(c2cccc(Cl)c2)CNC(=O)C1` (stereo not given), the melting point lay in the range of 178 to 181 °C.

In turn, `CCCCCCCCCCCCCCCCNC(=O)c1ccc(-n2oc(C(C)(C)C)c(COc3ccc(N)cc3)c2=O)c([N+](=O)[O-])c1` registered a melting point of 220 °C.

Compound `COc1ccc(-c2cc(=Nc3c(C)cc(C)cc3C)n(C)c3nncn23)cc1OC` came in with a melting point of 125 to 130 °C.

The compound `CCOC(=O)c1cc2ccc(F)c(C)c2[nH]1` returned a melting point of 149 °C.

`COC(=O)C1=C(C)NC2=C(C(=O)OC2)C1c1ccc2c(c1)OCO2` (stereo not given) came in with a melting point of 226 to 228 °C.

In turn, `CC(=NOCCOc1ccc(CC2SC(=O)N(C(c3ccccc3)(c3ccccc3)c3ccccc3)C2=O)cc1)c1ccc(N(C)S(=O)(=O)c2ccccc2)cc1` (stereo not given) gave a melting point of 143 to 145 °C.

Regarding `O=C(O)CCCN(C(=O)c1cccc(C(F)(F)F)c1)c1cccc2ccccc12`, the melting point was in the range of 128 to 129 °C.

Compound `Cn1cc(SCc2ccccc2)c(=O)c(-c2cccc(C(F)(F)F)c2)c1` came in with a melting point of 121 to 122 °C.

As to `NCCN1CCC(c2n[nH]c3cc(F)ccc23)CC1`, the melting point was in the range of 125 to 128 °C.

Compound `CC(=O)c1nc(-c2ccc(=O)n(C(C)C)n2)c(-c2ccccc2)nc1N` came in with a melting point of 234 to 236 °C.

Compound `Nc1nc(-c2ccccc2)nc2c1ncc(=O)n2C1CC(O)C(CO)O1` (stereo not given) gave a melting point of 169 to 172 °C.

As to `CCn1cc(-c2c(-c3ccccc3)nn3ccncc23)ccc1=O`, the melting point was in the range of 192 to 193 °C.

With `CC(=Cc1ccccc1)c1ccc2c(c1)S(=O)(=O)CCC2(C)C`, the melting point is 148 to 150 °C.

Compound `CC(C)(C)OC(=O)N1CCc2cc(-c3ccc(Cl)cc3)ccc2C1` registered a melting point of 88.5 to 90.5 °C.

As for `Brc1ccc2c(c1)C(c1ccccc1)OC(c1ccncc1)=N2` (stereo not given), the melting point was in the range of 161 to 162 °C.

The compound `COP(=O)(Cc1cccc2cccc(CP(=O)(OC)OC)c12)OC` registered a melting point of 168 to 170 °C.

Regarding `CCCOc1ccc(S(=O)(=O)N2CCN(CCOC(=O)OCC)CC2)cc1-c1nc2c(CCC)cn(CC)c2c(=O)[nH]1`, the melting point is 135 to 136 °C.

Take `COc1ccc(C(Nc2ccccc2)C(=O)OC(C)(C)C)cc1` (racemic): the melting point was 99 °C.

`COC(=O)c1cc(O)c(O)c(OC)c1` came in with a melting point of 110 to 111 °C.

As for `COc1ccc(C#CC(=Nc2ccc(OC)cc2)N2CCN(Cc3ccccc3)CC2)cc1`, the melting point amounted to 161 °C.

The compound `O=C(O)CCCCCCCCc1nc(-c2ccccc2)c(-c2ccccc2)o1` displayed a melting point of 83 to 85 °C.

Compound `COc1ccc(O)c(C(=O)N2CC(Oc3ccc(NC(=O)OC(C)(C)C)cc3)C2)c1` returned a melting point of 152 to 153 °C.

Regarding `COc1cc2c(=O)c(Cc3cccnc3)cn3c4cc(Br)ccc4c(=O)c(c1)c23`, the melting point lay in the range of 247 to 249 °C.

`Cc1c(O)ccc2c1OCC(c1ccc(N)cc1)C2` (stereo not given) gave a melting point of 150 to 151 °C.

In the case of `Cc1ccc(S(=O)(=O)n2cc3c(c2)SC(=C2SC(SCCc4ccc([N+](=O)[O-])cc4)=C(SCCc4ccc([N+](=O)[O-])cc4)S2)S3)cc1`, the melting point is 143 to 144 °C.

Compound `COc1cc(C)c(C(O)c2c(Cl)cncc2C(F)(F)F)c(OC)c1OC` (stereo not given) yielded a melting point of 102 to 105 °C.

With `CC(C)c1nc(CCCl)n(C)c1Sc1cc(Cl)cc(Cl)c1`, the melting point lay within 101 to 102 °C.

For the compound `Cc1cccc(C2COc3cc(O)ccc3C2c2ccc(OCCN3CCCC3)cc2)c1` (stereo not given), the melting point was 85 to 90 °C.

Turning to `Cc1ccc(C(=O)Nc2ccccc2C(=O)NCCc2ncc[nH]2)cc1`, the melting point was in the range of 209 to 214 °C.

As for `CN1CCC(OC(c2cccc(N=[N+]=[N-])c2)c2nc3ccccc3[nH]2)CC1` (stereo not given), the melting point was 53 °C.

In turn, `CCCCCc1ccc(-c2ncc([C@H]3CC[C@H](CCC)CC3)cn2)cc1` came in with a melting point of 93.5 °C.

For `COc1nc(-c2ccccc2)n(Cc2ccc(-c3ccccc3S(N)(=O)=O)cc2)c1C=O`, the melting point worked out at 188 °C.

For `CCCCCCCCCCCCCCCCCCOC(=O)CBr`, the melting point was 37 to 40 °C.

`O=C1N(Cc2ccc(NC=NO)nc2)c2ccccc2C12COc1cc3c(cc12)OCCO3` (stereo not given) registered a melting point of 231 to 232 °C.

`O=C(O)c1cn(C2CC2)c2nc3cc(N4CCNC(c5cccs5)C4)c(F)cc3cc2c1=O` (racemic): the melting point was 245 °C.

For `CN(C)CCNC(=O)Cc1ccc(NC(=O)OCc2ccccc2)cc1`, the melting point lay in the range of 126 to 127 °C.

The compound `CCCCCCCCNC(=O)n1nc(Oc2ncc(C(F)(F)F)cc2Cl)c(Cl)c1C` registered a melting point of 61 to 62 °C.

As for `COc1c(C)c(C)cc(C)c1C(O)(c1ccc(C)cc1)C(C)C` (stereo not given), the melting point is 103 to 104 °C.

In turn, `O=S1(=O)Oc2ccccc2Nc2ncccc21` displayed a melting point of 208 to 209 °C.

`O=C(O)/C=C/C(=O)c1ccoc1` showed a melting point of 104 to 106 °C.

`CCCCCCCCCCCCCCCCS(=O)(=O)OC1CNC1` came in with a melting point of 91 to 97 °C.

Turning to `COc1ccc2c(c1)C(=O)CC21CCCC1`, the melting point is 80 °C.

For the compound `CC(C)C[C@H](NC(=O)c1cc2ccccc2o1)C(=O)N[C@H]1CC[C@@H](C)N(S(=O)(=O)c2ccccn2)CC1=O`, the melting point lay within 151 to 153 °C.

On to `O=C(O)COCCc1cc2cc(Cl)ccc2n1S(=O)(=O)c1ccccc1`, for which the melting point was 135 to 137 °C.

Consider `CC1=C(C(=O)OC(C)C)C(c2cccc(Cl)c2Cl)N(C(=O)OC(C)C)C(=O)N1` (stereo not given), for which the melting point lay in the range of 158 to 160 °C.

`CC(=O)OC1CCC2(C)C(CCC3=C4C(=O)CC(C(C)CCCN(C)C)C4(C)CCC32)C1` (stereo not given): the melting point lay in the range of 122 to 124 °C.

Regarding `CCCCc1nc(Cl)c(/C=C(\Cc2ccccc2)C(=O)O)n1Cc1ccc(-c2c(O)c(=O)c2=O)cc1`, the melting point was in the range of 155 to 160 °C.

`COc1ccc(C(F)(F)F)cc1NC(=O)Nc1ccc(-c2c(C(N)=O)[nH]c3ccccc23)cc1` showed a melting point of 178 to 180 °C.

Consider `CCCc1cc(C(C)=O)c(O)cc1OCCCCC(=O)O`, for which the melting point came out at 106 °C.

The compound `O=c1oc2c(Br)cccc2cc1S(=O)(=O)Nc1ccc(Br)cc1` displayed a melting point of 206 to 208 °C.

`COc1ccc(N(CC(=O)NCCC(=O)O)C(=O)c2ccc(Cl)cc2)cc1` displayed a melting point of 129 to 131 °C.

With `Clc1cc2nnnn2c2cnccc12`, the melting point fell in the range of 176 to 177 °C.

`CC(C=NO)n1nnc2ccc(Oc3cc(F)c(C(F)(F)F)c(Cl)c3)cc21` (stereo not given) came in with a melting point of 148 to 151 °C.

Regarding `Cc1cc(C)cc(SN2C(=O)CCC2=O)c1`, the melting point lay in the range of 131 to 134 °C.

`CC(C)N(CCN1C(=O)/C(=N/NC(=O)NC2CCCCC2)c2cc(Br)ccc21)C(C)C` had a melting point of 155 to 156 °C.

Compound `CCCOc1ccc(S(C)(=O)=O)cc1C(=O)Nc1c(C(N)=O)nn(CC2CC2)c1CC` returned a melting point of 185 to 186 °C.

The compound `CC(C)[C@H]1CC[C@H](C(=O)CO)CC1` returned a melting point of 43 to 44 °C.

`COc1cc2c(cc1OC)[C@@H]1CCCC[C@@H]1N=C2c1ccc(N(S(=O)(=O)c2ccc([N+](=O)[O-])cc2)S(=O)(=O)c2ccc([N+](=O)[O-])cc2)cc1` (racemic): the melting point worked out at 234 °C.

The compound `O=C(CCCI)Nc1ccccc1` yielded a melting point of 138 to 139 °C.
